Values quoted from earlier work in US20120258972A1, “Composition and Methods for Treating Hair Loss” (priority 2011, published 2012).

Assays:
[1] = test system: serum dihydrotestosterone; details: oral
male pattern hair loss = details: oral dutasteride 0.5 mg and 2.5 mg/day; 12 and 24 weeks
[2] = biological target: T1, Type II isozyme of 5-alpha reductase (Homo sapiens, UniProt P31213)
T1 sequence (P31213 1-254): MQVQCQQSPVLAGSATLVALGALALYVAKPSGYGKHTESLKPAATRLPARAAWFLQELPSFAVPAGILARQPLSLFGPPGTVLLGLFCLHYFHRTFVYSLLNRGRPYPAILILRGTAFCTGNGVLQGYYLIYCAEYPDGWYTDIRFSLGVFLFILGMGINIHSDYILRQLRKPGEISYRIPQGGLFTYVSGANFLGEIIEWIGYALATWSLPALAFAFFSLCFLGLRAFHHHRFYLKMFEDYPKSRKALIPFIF

[3] = biological target: T2, type I isozyme of 5-alpha reductase (Homo sapiens, UniProt P18405)
T2 sequence (P18405 1-259): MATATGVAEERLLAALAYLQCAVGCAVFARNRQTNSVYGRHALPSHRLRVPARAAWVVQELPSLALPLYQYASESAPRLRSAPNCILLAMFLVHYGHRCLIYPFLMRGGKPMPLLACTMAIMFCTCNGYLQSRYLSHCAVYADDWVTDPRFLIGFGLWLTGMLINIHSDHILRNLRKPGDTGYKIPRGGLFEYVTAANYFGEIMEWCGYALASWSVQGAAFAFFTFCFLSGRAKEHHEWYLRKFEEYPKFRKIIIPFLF

C.3H/HeN mice = details: topical application
[4] = test system: men with androgenic alopecia; details: ketoconazole shampoo 2% versus 2% minoxidil regimen

SMILES	Decrease of serum dihydrotestosterone [1]	Hair count compared with 5 mg/day finasteride (male pattern hair loss)	Potency relative to finasteride at inhibiting the Type II isozyme of 5-alpha reductase [2] [times]	Potency relative to finasteride at inhibiting the type I isozyme of 5-alpha reductase [3]	Effect on hair growth in mice (C.3H/HeN mice)	Hair density, size, and proportion of anagen follicles [4]
C[C@]12C=CC(=O)N[C@@H]1CC[C@@H]1[C@@H]2CC[C@]2(C)[C@@H](C(=O)Nc3cc(C(F)(F)F)ccc3C(F)(F)F)CC[C@@H]12 [dutasteride]	up to 90%	superior hair count	3	more than 100 times		
CC(C)(C)NC(=O)[C@H]1CC[C@H]2[C@@H]3CC[C@H]4NC(=O)C=C[C@]4(C)[C@H]3CC[C@]12C [finasteride]	about 70%					
CC(=O)N1CCN(c2ccc(OCC3COC(Cn4ccnc4)(c4ccc(Cl)cc4Cl)O3)cc2)CC1 (stereo not shown) [ketoconazole]					stimulatory effect on hair growth	improved almost similarly
